Laboratory results taken from ChEMBL document CHEMBL5143708, “New antimalarials identified by a cell-based phenotypic approach: Structure-activity relationships of 2,3,4,9-tetrahydro-1H-β-carboline derivatives possessing a 2-((coumarin-5-yl)oxy)alkanoyl moiety” (Bioorg Med Chem, 2022).
Calls of active or inactive are those of the source. No cut-off for these calls is given here.

Key:
Plasmodium falciparum [1] = assay: Antiplasmodial activity against Plasmodium falciparum 3D7 infected in human RBC assessed as reduction in parasite growth after 72 hrs by LDH assay; type: functional, organism-based; settings: 3D7, Erythrocyte
[2] = Cytotoxicity against human HL-60 cells assessed as reduction in cell viability after 48 hrs by Cell Count Reagent SF based assay; type: toxicity
[3] = Tmax in ICR mouse at 40 mg/kg, ip; type: ADME, organism-based; settings: in vivo
Plasmodium falciparum [4] = assay: Antiplasmodial activity against chloroquine-resistant Plasmodium falciparum Dd2 infected in human RBC assessed as reduction in parasite growth after 72 hrs by LDH assay; type: functional, organism-based; settings: Dd2, Erythrocyte
Plasmodium falciparum [5] = assay: Antiplasmodial activity against chloroquine-resistant Plasmodium falciparum K1 infected in human RBC assessed as reduction in parasite growth after 72 hrs by LDH assay; type: functional, organism-based; settings: K1, Erythrocyte
Plasmodium berghei [6] = assay: Antimalarial activity against Plasmodium berghei ANKA infected in ICR mouse assessed as reduction in parasitemia level at 40 to 200 mg/kg, ip administered for 4 to 7 days after post-infection by Giemsa staining based microscopic analysis; type: functional, organism-based; settings: dose 40-200 mg/kg, time 4-7 day
Plasmodium berghei [7] = assay: Antimalarial activity against Plasmodium berghei ANKA infected in ICR mouse assessed as increase in body weight at 40 mg/kg, ip administered for 4 to 7 days after post-infection by Giemsa staining based microscopic analysis; type: functional, organism-based; settings: time 4-7 day
[8] = Toxicity in ICR mouse infected with Plasmodium berghei ANKA assessed as decrease in body weight at 200 mg/kg, ip administered for 4 to 7 days after post-infection by Giemsa staining based microscopic analysis; type: organism-based; settings: in vivo, time 4-7 day
Plasmodium berghei [9] = assay: Antimalarial activity against Plasmodium berghei ANKA infected in ICR mouse assessed as increase in body weight at 200 mg/kg, ip administered for 4 to 7 days after post-infection and measured on day 11 post-infection by Giemsa staining based microscopic analysis; type: functional, organism-based; settings: time 8.0 day
Plasmodium berghei [10] = assay: Antimalarial activity against Plasmodium berghei ANKA infected in ICR mouse assessed as increase in survival at 40 mg/kg, ip administered for 4 to 7 days after post-infection and measured on day 11 post-infection by Giemsa staining based microscopic analysis; type: functional, organism-based; settings: time 8.0 day
[11] = Toxicity in ICR mouse infected with Plasmodium berghei ANKA assessed as decrease in body weight at 200 mg/kg, ip administered for 4 to 7 days after post-infection and measured on day 18 post-infection by Giemsa staining based microscopic analysis; type: organism-based; settings: in vivo, 360 h, time 15 day
Plasmodium berghei [12] = assay: Antimalarial activity against Plasmodium berghei ANKA infected in ICR mouse assessed as increase in survival at 200 mg/kg, ip administered for 4 to 7 days after post-infection and measured on day 19 post-infection by Giemsa staining based microscopic analysis; type: functional, organism-based; settings: time 16.0 day
[13] = AUC in ICR mouse at 40 mg/kg, ip; type: ADME, organism-based; design: dose 40 mg/kg, route ip; settings: in vivo
[14] = Cmax in ICR mouse at 40 mg/kg, ip; type: ADME, organism-based; design: dose 40 mg/kg, route ip; settings: in vivo
[15] = Half life in ICR mouse at 40 mg/kg, ip; type: ADME, organism-based; settings: in vivo

Row | Structure (SMILES) | IC50 (Plasmodium falciparum [1]) [nM] | IC50 at 48 h [2] [nM] | further results
1 | CCCCc1cc(=O)oc2cc(C)cc(OC(CCC)C(=O)N3Cc4[nH]c5ccccc5c4C[C@H]3C(=O)OC)c12 (some centres undefined) | 5.9 | > 3000 | –
2 | CCCCc1cc(=O)oc2cc(C)cc(OCC(=O)N3Cc4[nH]c5ccccc5c4C[C@@H]3C(=O)OC)c12 | 980 | > 3000 | –
3 | CCCCc1cc(=O)oc2cc(Br)cc(O[C@H](C)C(=O)N3Cc4[nH]c5ccccc5c4C[C@H]3C(=O)OC)c12 | 9.6 | > 3000 | –
4 | CCCCc1coc2cc(C)cc(O[C@H](C)C(=O)N3Cc4[nH]c5ccccc5c4C[C@H]3C(=O)OC)c12 | 220 | > 3000 | –
5 | CCCCc1cc(=O)oc2cc(C)cc(O[C@H](C)C(=O)N3Cc4[nH]c5ccccc5c4C[C@H]3C(=O)OC)c12 | 2 | > 3000 | Tmax [3]: 2 h; IC50 (Plasmodium falciparum [4]): 2.2 nM; IC50 (Plasmodium falciparum [5]): 2.6 nM; Activity (Plasmodium berghei [6]): Active; Activity (Plasmodium berghei [7]): Active; Activity [8]: Toxic; Activity (Plasmodium berghei [9]): Active; Activity (Plasmodium berghei [10]): Active; Activity [11]: Toxic; Activity (Plasmodium berghei [12]): Active; AUC [13]: 25600 ng·h/mL; Cmax [14]: 7120 ng/mL; half-life [15]: 2.14 h
6 | CCCCc1cc(=O)oc2cc(C)cc(OCC(=O)N3Cc4[nH]c5ccccc5c4C[C@H]3C(=O)NC)c12 | > 3000 | > 3000 | –
7 | CCCCc1cc(=O)oc2cccc(O[C@H](C)C(=O)N3Cc4[nH]c5ccccc5c4C[C@H]3C(=O)OC)c12 | 4.1 | > 3000 | –
8 | CCCCc1cc(=O)oc2cc(C)cc(OC(C(=O)N3Cc4[nH]c5ccccc5c4C[C@H]3C(=O)OC)C(C)C)c12 (some centres undefined) | 6.4 | > 3000 | –
9 | CCCc1cc(=O)oc2cc(C)cc(O[C@H](C)C(=O)N3Cc4[nH]c5ccccc5c4C[C@H]3C(=O)OC)c12 | 1.9 | > 3000 | IC50 (Plasmodium falciparum [4]): 2.1 nM; IC50 (Plasmodium falciparum [5]): 1.9 nM
10 | CCCCc1cc(=O)oc2cc(C)cc(O[C@H](C)C(=O)N[C@@H](Cc3c[nH]c4ccccc34)C(=O)OC)c12 | 55 | > 3000 | –
11 | CCCCc1cc(=O)oc2cc(C)cc(O[C@H](C)C(=O)N3CCc4c([nH]c5ccccc45)C3)c12 | 72 | > 3000 | –
12 | COC(=O)[C@@H]1Cc2c([nH]c3ccccc23)CN1C(=O)[C@@H](C)Oc1cc(C)cc2oc(=O)cc(C)c12 | 40 | > 3000 | –
13 | COC(=O)[C@@H]1Cc2c([nH]c3ccccc23)CN1C(=O)[C@@H](C)Oc1cc(C)cc2oc(=O)cc(CC3CC3)c12 | 3.5 | > 3000 | –
14 | CCCCc1cc(=O)oc2cc(C)cc(OCC(=O)N3Cc4[nH]c5ccccc5c4C[C@H]3C(=O)OC)c12 | 20 | > 3000 | IC50 (Plasmodium falciparum [4]): 24 nM; IC50 (Plasmodium falciparum [5]): 20 nM
15 | CCCCc1cc(=O)oc2cc(C)cc(O[C@H](C)C(=O)N3Cc4[nH]c5ccccc5c4C[C@H]3C#N)c12 | 4.1 | > 3000 | –
16 | CCCCc1cc(=O)oc2cc(C)cc(OC(CCCC)C(=O)N3Cc4[nH]c5ccccc5c4C[C@H]3C(=O)OC)c12 (some centres undefined) | 10 | > 3000 | –
17 | CCCCc1cc(=O)oc2cc(C)cc(O[C@H](C)C(=O)N3Cc4[nH]c5ccc(F)cc5c4C[C@H]3C(=O)OC)c12 | 5.5 | > 3000 | –
18 | CCCCc1cc(=O)oc2cc(C)cc(O[C@H](C)C(=O)N3Cc4[nH]c5ccccc5c4C[C@H]3C(C)=O)c12 | 5.6 | > 3000 | –
19 | CCCCc1cc(=O)oc2cc(C)cc(OC(C)C(=O)N3Cc4[nH]c5ccccc5c4C[C@H]3C(=O)OC)c12 (some centres undefined) | 6.8 | > 3000 | –
20 | CCCCc1coc2cc(C)cc(O[C@H](C)C(=O)N3Cc4[nH]c5ccccc5c4C[C@H]3C#N)c12 | 110 | > 3000 | –
21 | CCCCc1cc(=O)oc2cc(C)cc(O[C@@H](C)C(=O)N3Cc4[nH]c5ccccc5c4C[C@H]3C(=O)OC)c12 | 190 | > 3000 | –
22 | CCCCc1cc(=O)oc2cc(N3CCOCC3)cc(O[C@H](C)C(=O)N3Cc4[nH]c5ccccc5c4C[C@H]3C(=O)OC)c12 | 210 | > 3000 | –
23 | CCCCc1cc(=O)oc2cc(C)cc(O[C@H](C)C(=O)N3Cc4[nH]c5ccccc5c4C[C@H]3C(=O)OCC)c12 | 55 | > 3000 | –
24 | CCCCc1cc(=O)oc2cc(C)cc(OC(CC)C(=O)N3Cc4[nH]c5ccccc5c4C[C@H]3C(=O)OC)c12 (some centres undefined) | 7 | > 3000 | –
25 | CCCCC(=O)c1c(OC)cc(C)cc1O[C@H](C)C(=O)N1Cc2[nH]c3ccccc3c2C[C@H]1C(=O)OC | 2400 | > 3000 | –
26 | CCc1cc(=O)oc2cc(C)cc(O[C@H](C)C(=O)N3Cc4[nH]c5ccccc5c4C[C@H]3C(=O)OC)c12 | 11 | > 3000 | –
